What was measured:
Human CD73 = molecular target: T1, Human CD73 (Homo sapiens, UniProt P21589); assay: CD73 Enzyme Assay; format: biochemical; settings: 0.25 nM hCD73, 25 μM AMP, kinetic read at 360 nm; read-out: CD73 Enzyme Assay IC50
T1 construct: purchased R&D Systems; host or cells: CHO cells
T1 sequence (P21589 27-549): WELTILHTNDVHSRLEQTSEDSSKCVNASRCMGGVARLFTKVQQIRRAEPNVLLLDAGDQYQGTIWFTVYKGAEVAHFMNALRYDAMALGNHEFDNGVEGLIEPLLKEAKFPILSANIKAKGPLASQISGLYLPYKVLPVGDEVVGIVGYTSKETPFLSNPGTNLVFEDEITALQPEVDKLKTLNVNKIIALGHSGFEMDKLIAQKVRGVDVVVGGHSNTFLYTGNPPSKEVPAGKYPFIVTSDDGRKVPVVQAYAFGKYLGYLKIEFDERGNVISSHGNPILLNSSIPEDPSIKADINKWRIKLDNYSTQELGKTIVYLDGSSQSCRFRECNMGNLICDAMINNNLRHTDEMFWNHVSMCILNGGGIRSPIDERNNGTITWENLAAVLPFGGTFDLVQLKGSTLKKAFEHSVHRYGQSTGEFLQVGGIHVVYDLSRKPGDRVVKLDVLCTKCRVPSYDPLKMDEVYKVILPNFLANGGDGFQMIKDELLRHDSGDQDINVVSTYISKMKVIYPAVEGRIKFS

[1] = molecular target: T2, CD73 on U138 human neuroglioma cells (Homo sapiens, UniProt P21589); assay: CD73 Cell-Based Assay; settings: U138 cells, AMP substrate, 2 hours at 37° C., inorganic phosphate by malachite green
T2 construct: U138 cells were obtained from ATCC and cultured in DMEM with 10% FBS; host or cells: U138 human neuroglioma cells
T2 sequence (P21589 27-549): T1 sequence (P21589 27-549)
In short: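 Whole U138 cells washed free of phosphate were incubated with 200 μM AMP (mixture concentration before equal-volume addition) plus compound in HEPES-buffered saline, pH 7.4, for 2 h at 37 °C, 5% CO2. Adenosine-forming activity read as inorganic phosphate released into supernatant by malachite green.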

Compound	IC50 (Human CD73) [nM]	IC50 [1] [nM]
C[C@H](c1ccccc1)N(C)c1nc(Cl)nc2c1ccn2[C@@H]1O[C@H](COCP(=O)(OCOC(=O)C(C)(C)C)OCOC(=O)C(C)(C)C)[C@@H](O)[C@H]1O [Compound 133, ((((((2R,3S,4R,5R)-5-(2-chloro-4-(methyl((R)-1-phenylethyl)amino)-7H-pyrrolo[2,3-d]pyrimidin-7-yl)-3,4-dihydroxytetrahydrofuran-2-yl)methoxy)methyl)phosphoryl)bis(oxy))bis(methylene) bis(2,2-dimethylpropanoate)]	> 1000	> 1000
C[C@@H](Nc1nc(Cl)nc2c1ccn2[C@@H]1O[C@H](COCP(=O)(O)O)[C@@H](O)[C@H]1O)c1ccc(F)cn1 [Compound 135, [(2R,3S,4R,5R)-5-[2-chloro-4-[[(1R)-1-(5-fluoro-2-pyridyl)ethyl]-amino]pyrrolo[2,3-d]-pyrimidin-7-yl]-3,4-dihydroxy-tetrahydro-furan-2-yl]methoxy-methylphosphonic acid]	100 to 1000	10 to 100
Cc1ccc([C@@H](C)Nc2nc(C#N)nc3c2ccn3[C@@H]2O[C@H](COCP(=O)(O)O)[C@@H](O)[C@H]2O)cc1 [Compound 137, [(2R,3S,4R,5R)-5-[2-cyano-4-[[(1R)-1-(p-tolyl)ethyl]amino]-pyrrolo[2,3-d]-pyrimidin-7-yl]-3,4-dihydroxy-tetrahydro-furan-2-yl]methoxy-methylphosphonic acid]	10 to 100	< 10
N#Cc1nc(N2CCCCC2)c2ccn([C@@H]3O[C@H](COCP(=O)(O)O)[C@@H](O)[C@H]3O)c2n1 [Compound 143, [(2R,3S,4R,5R)-5-[2-cyano-4-(1-piperidyl)-pyrrolo[2,3-d]-pyrimidin-7-yl]-3,4-dihydroxy-tetrahydro-furan-2-yl]methoxy-methylphosphonic acid]	< 10	10 to 100
C[C@@H](Nc1nc(Cl)nc2c1ccn2[C@@H]1O[C@H](COCP(=O)(O)O)[C@@H](O)[C@H]1O)c1ccc(F)cc1F [Compound 144, [(2R,3S,4R,5R)-5-[2-chloro-4-[[(1R)-1-(2,4-difluorophenyl)-ethyl]amino]pyrrolo-[2,3-d]pyrimidin-7-yl]-3,4-dihydroxy-tetrahydrofuran-2-yl]-methoxymethylphos-phonic acid]	< 10	< 10
C[C@@H](Nc1nc(C#N)nc2c1ccn2[C@@H]1O[C@H](COCP(=O)(O)O)[C@@H](O)[C@H]1O)c1ccc(F)cn1 [Compound 145, [(2R,3S,4R,5R)-5-[2-cyano-4-[[(1R)-1-(5-fluoro-2-pyridyl)ethyl]-amino]pyrrolo[2,3-d]-pyrimidin-7-yl]-3,4-dihydroxy-tetrahydro-furan-2-yl]methoxy-methylphosphonic acid]	100 to 1000	10 to 100
C[C@H](Nc1nc(C#N)nc2c1ccn2[C@@H]1O[C@H](COCP(=O)(O)O)[C@@H](O)[C@H]1O)c1ccc(F)cn1 [Compound 146]	100 to 1000	10 to 100
C[C@H](Nc1nc(C#N)nc2c1ccn2[C@@H]1O[C@H](COCP(=O)(O)O)[C@@H](O)[C@H]1O)c1ccc(C(F)(F)F)cc1 [Compound 147, [(2R,3S,4R,5R)-5-[2-cyano-4-[[(1S)-1-[4-(trifluoromethyl)-phenyl]ethyl]amino]-pyrrolo[2,3-d]-pyrimidin-7-yl]-3,4-dihydroxy-tetrahydro-furan-2-yl]methoxy-methylphosphonic acid]	10 to 100	< 10
C[C@H](Nc1nc(Cl)nc2c1ncn2[C@@H]1O[C@H](CS(=O)(=O)CP(=O)(O)O)[C@@H](O)[C@H]1O)c1ccccc1 [Compound 152, [(2S,3S,4R,5R)-5-[2-chloro-6-[[(1S)-1-phenylethyl]amino]-purin-9-yl]-3,4-dihydroxy-tetrahydro-furan-2-yl]methyl-sulfonylmethylphos-phonic acid]	10 to 100	10 to 100

Second part, the molecule after the results:

IC50 (Human CD73) [nM]	IC50 [1] [nM]	Compound
< 10	10 to 100	C[C@H](c1ccccc1)N(C)c1nc(Cl)nc2c1ccn2[C@@H]1O[C@H](COCP(=O)(O)OCOC(=O)C(C)(C)C)[C@@H](O)[C@H]1O [Compound 132, ((((((2R,3S,4R,5R)-5-(2-chloro-4-(methyl((R)-1-phenylethyl)amino)-7H-pyrrolo[2,3-d]pyrimidin-7-yl)-3,4-dihydroxytetrahydrofuran-2-yl)methoxy)methyl)(hydroxy)phosphoryl)oxy)methyl pivalate]
< 10	10 to 100	C[C@@H](Nc1cc(Cl)nc2c1ccn2[C@@H]1O[C@H](COCP(=O)(O)O)[C@@H](O)[C@H]1O)c1ccccc1 [Compound 134, [(2R,3S,4R,5R)-5-[6-chloro-4-[[(1R)-1-phenylethyl]amino]pyrrolo[2,3-b]pyridin-1-yl]-3,4-dihydroxy-tetrahydrofuran-2-yl]methoxymethylphosphonic acid]
< 10	< 10	Cc1ccc([C@@H](C)Nc2nc(Cl)nc3c2ccn3[C@@H]2O[C@H](COCP(=O)(O)O)[C@@H](O)[C@H]2O)cc1 [Compound 136, [(2R,3S,4R,5R)-5-[2-chloro-4-[[(1R)-1-(p-tolyl)ethyl]amino]-pyrrolo[2,3-d]-pyrimidin-7-yl]-3,4-dihydroxy-tetrahydro-furan-2-yl]methoxy-methylphosphonic acid]
< 10	< 10	C[C@H](Nc1nc(C#N)nc2c1ccn2[C@@H]1O[C@H](COCP(=O)(O)O)[C@@H](O)[C@H]1O)c1ccc(F)cc1F [Compound 138, [(2R,3S,4R,5R)-5-[2-cyano-4-[[(1S)-1-(2,4-difluorophenyl)ethyl]-amino]pyrrolo[2,3-d]-pyrimidin-7-yl]-3,4-dihydroxy-tetrahydro-furan-2-yl]methoxy-methylphosphonic acid]
< 10	10 to 100	C[C@H](Nc1nc(Cl)nc2c1ccn2[C@@H]1O[C@H](COCP(=O)(O)O)[C@@H](O)[C@H]1O)c1ccc(F)cn1 [Compound 139, [(2R,3S,4R,5R)-5-[2-chloro-4-[[(1S)-1-(5-fluoro-2-pyridyl)-ethyl]amino]pyrrolo-[2,3-d]pyrimidin-7-yl]-3,4-dihydroxy-tetrahydrofuran-2-yl]-methoxymethylphos-phonic acid]
< 10	< 10	C[C@H](Nc1nc(Cl)nc2c1ccn2[C@@H]1O[C@H](COCP(=O)(O)O)[C@@H](O)[C@H]1O)c1ccc(Cl)cc1 [Compound 140, [(2R,3S,4R,5R)-5-[2-chloro-4-[[(1S)-1-(4-chlorophenyl)ethyl]-amino]pyrrolo[2,3-d]-pyrimidin-7-yl]-3,4-dihydroxy-tetrahydro-furan-2-yl]methoxy-methylphosphonic acid]
< 10	< 10	C[C@H](Nc1nc(C#N)nc2c1ccn2[C@@H]1O[C@H](COCP(=O)(O)O)[C@@H](O)[C@H]1O)c1ccc(C#N)cc1 [Compound 141, [(2R,3S,4R,5R)-5-[2-cyano-4-[[(1S)-1-(4-cyanophenyl)ethyl]-amino]pyrrolo[2,3-d]-pyrimidin-7-yl]-3,4-dihydroxy-tetrahydro-furan-2-yl]methoxy-methylphosphonic acid]
< 10	< 10	N#Cc1nc(NC2CCC(F)(F)CC2)c2ccn([C@@H]3O[C@H](COCP(=O)(O)O)[C@@H](O)[C@H]3O)c2n1 [Compound 142, [(2R,3S,4R,5R)-5-[2-cyano-4-[(4,4-difluoro-cyclohexyl)amino]-pyrrolo[2,3-d]-pyrimidin-7-yl]-3,4-dihydroxy-tetrahydro-furan-2-yl]methoxy-methylphosphonic acid]

Source: US11591355B2 (Peloton Therapeutics, Inc., priority 2017, dated 2023)
